Measured values as given in ChEMBL document CHEMBL1671689, “Activity of ceftaroline against recent emerging serotypes of Streptococcus pneumoniae in the United States” (2010).
Values after ≈ are worked out from the molar mass of the structure shown.

Experiments:
Type in all cases: functional
Streptococcus pneumoniae [1] = assay: Antimicrobial activity against Streptococcus pneumoniae serotype 6C by broth microdilution method
Streptococcus pneumoniae [2] = assay: Antimicrobial activity against Streptococcus pneumoniae serotype 35B by broth microdilution method
Streptococcus pneumoniae [3] = assay: Antimicrobial activity against multiple drug resistant Streptococcus pneumoniae serotype 19A assessed as percent susceptible isolates by broth microdilution method
Streptococcus pneumoniae [4] = assay: Antimicrobial activity against Streptococcus pneumoniae serotype 3 by broth microdilution method
Streptococcus pneumoniae [5] = assay: Antimicrobial activity against multiple drug resistant Streptococcus pneumoniae serotype 6B assessed as percent susceptible isolates by broth microdilution method
Streptococcus pneumoniae [6] = assay: Antimicrobial activity against Streptococcus pneumoniae serotype 15A assessed as percent susceptible isolates by broth microdilution method
Streptococcus pneumoniae [7] = assay: Antimicrobial activity against Streptococcus pneumoniae serotype 23A assessed as percent susceptible isolates by broth microdilution method
Streptococcus pneumoniae [8] = assay: Antimicrobial activity against Streptococcus pneumoniae serotype 3 assessed as percent susceptible isolates by broth microdilution method
Streptococcus pneumoniae [9] = assay: Antimicrobial activity against Streptococcus pneumoniae serotype 11A assessed as percent susceptible isolates by broth microdilution method
Streptococcus pneumoniae [10] = assay: Antimicrobial activity against Streptococcus pneumoniae serotype 7F assessed as percent susceptible isolates by broth microdilution method
Streptococcus pneumoniae [11] = assay: Antimicrobial activity against multiple drug resistant Streptococcus pneumoniae serotype 19F assessed as percent susceptible isolates by broth microdilution method
Streptococcus pneumoniae [12] = assay: Antimicrobial activity against Streptococcus pneumoniae serotype 19F assessed as percent susceptible isolates by broth microdilution method
Streptococcus pneumoniae [13] = assay: Antimicrobial activity against Streptococcus pneumoniae serotype 19A assessed as percent susceptible isolates by broth microdilution method
Streptococcus pneumoniae [14] = assay: Antimicrobial activity against Streptococcus pneumoniae serotype 7F by broth microdilution method
Streptococcus pneumoniae [15] = assay: Antimicrobial activity against Streptococcus pneumoniae serotype 22F assessed as percent susceptible isolates by broth microdilution method
Streptococcus pneumoniae [16] = assay: Antimicrobial activity against Streptococcus pneumoniae serotype 23B assessed as percent susceptible isolates by broth microdilution method
Streptococcus pneumoniae [17] = assay: Antimicrobial activity against Streptococcus pneumoniae serotype 11A by broth microdilution method
Streptococcus pneumoniae [18] = assay: Antimicrobial activity against Streptococcus pneumoniae serotype 6C assessed as percent susceptible isolates by broth microdilution method
Streptococcus pneumoniae [19] = assay: Antimicrobial activity against multiple drug resistant Streptococcus pneumoniae serotype 6B by broth microdilution method
Streptococcus pneumoniae [20] = assay: Antimicrobial activity against Streptococcus pneumoniae serotype 19A by broth microdilution method
Streptococcus pneumoniae [21] = assay: Antimicrobial activity against Streptococcus pneumoniae serotype 35B assessed as percent susceptible isolates by broth microdilution method
Streptococcus pneumoniae [22] = assay: Antimicrobial activity against multiple drug resistant Streptococcus pneumoniae serotype 19F by broth microdilution method
Streptococcus pneumoniae [23] = assay: Antimicrobial activity against multiple drug resistant Streptococcus pneumoniae serotype 19A by broth microdilution method

Compound | MIC50 (Streptococcus pneumoniae [1]) [µg/mL] | MIC90 (Streptococcus pneumoniae [1]) [µg/mL] | MIC50 (Streptococcus pneumoniae [2]) [µg/mL] | MIC90 (Streptococcus pneumoniae [2]) [µg/mL] | Activity (Streptococcus pneumoniae [3]) [%] | MIC50 (Streptococcus pneumoniae [4]) [µg/mL] | MIC90 (Streptococcus pneumoniae [4]) [µg/mL] | Activity (Streptococcus pneumoniae [5]) [%] | Activity (Streptococcus pneumoniae [6]) [%] | Activity (Streptococcus pneumoniae [7]) [%] | Activity (Streptococcus pneumoniae [8]) [%] | Activity (Streptococcus pneumoniae [9]) [%] | Activity (Streptococcus pneumoniae [10]) [%] | Activity (Streptococcus pneumoniae [11]) [%] | Activity (Streptococcus pneumoniae [12]) [%] | Activity (Streptococcus pneumoniae [13]) [%] | MIC50 (Streptococcus pneumoniae [14]) [µg/mL] | MIC90 (Streptococcus pneumoniae [14]) [µg/mL] | Activity (Streptococcus pneumoniae [15]) [%] | Activity (Streptococcus pneumoniae [16]) [%] | further results
CC[C@H]1OC(=O)[C@H](C)[C@@H](O[C@H]2C[C@@](C)(OC)[C@@H](O)[C@H](C)O2)[C@H](C)[C@@H](O[C@@H]2O[C@H](C)C[C@H](N(C)C)[C@H]2O)[C@](C)(O)C[C@@H](C)C(=O)[C@H](C)[C@@H](O)[C@]1(C)O [ERYTHROMYCIN] | > 2 | > 2 | ≤ 0.25 | > 2 | 0 | ≤ 0.25 | ≤ 0.25 | 0 | 5.3 | 78.8 | 95.1 | 75.5 | 64.4 | 0 | 17.2 | 26.5 | ≤ 0.25 | ≤ 0.25 | 88.6 | 75.8 | MIC (Streptococcus pneumoniae [14]): ≤ 0.25 µg/mL; MIC50 (Streptococcus pneumoniae [17]): ≤ 0.25 µg/mL; MIC90 (Streptococcus pneumoniae [17]): > 2 µg/mL; Activity (Streptococcus pneumoniae [18]): 41.9%; MIC (Streptococcus pneumoniae [19]): > 8 µg/mL; MIC50 (Streptococcus pneumoniae [19]): > 8 µg/mL; MIC90 (Streptococcus pneumoniae [19]): > 8 µg/mL; MIC50 (Streptococcus pneumoniae [20]): > 2 µg/mL; MIC90 (Streptococcus pneumoniae [20]): > 2 µg/mL; Activity (Streptococcus pneumoniae [21]): 64.4%; MIC (Streptococcus pneumoniae [22]): > 8 µg/mL; MIC50 (Streptococcus pneumoniae [22]): > 8 µg/mL; MIC90 (Streptococcus pneumoniae [22]): > 8 µg/mL; MIC (Streptococcus pneumoniae [23]): > 8 µg/mL; MIC50 (Streptococcus pneumoniae [23]): > 8 µg/mL; MIC90 (Streptococcus pneumoniae [23]): > 8 µg/mL
C[C@@H](O)[C@H]1C(=O)N2C(C(=O)O)=C(SCCNC=N)C[C@H]12 [IMIPENEM ANHYDROUS] | ≤ 0.12 | ≤ 0.12 | 0.25 (≈ 0.835 µM) | 0.5 (≈ 1.67 µM) | 0.8 | ≤ 0.12 | ≤ 0.12 | 0.8 | 100 | 100 | 100 | 95.9 | 15.3 | 0.8 | 20.7 | 40.2 | ≤ 0.12 | ≤ 0.12 | 100 | 100 | MIC (Streptococcus pneumoniae [1]): ≤ 0.12 µg/mL; MIC (Streptococcus pneumoniae [4]): ≤ 0.12 µg/mL; MIC (Streptococcus pneumoniae [14]): ≤ 0.12 µg/mL; MIC (Streptococcus pneumoniae [17]): ≤ 0.12 µg/mL; MIC50 (Streptococcus pneumoniae [17]): ≤ 0.12 µg/mL; MIC90 (Streptococcus pneumoniae [17]): ≤ 0.12 µg/mL; Activity (Streptococcus pneumoniae [18]): 90.7%; MIC50 (Streptococcus pneumoniae [19]): 1 µg/mL (≈ 3.34 µM); MIC90 (Streptococcus pneumoniae [19]): 1 µg/mL (≈ 3.34 µM); MIC50 (Streptococcus pneumoniae [20]): 0.5 µg/mL (≈ 1.67 µM); MIC90 (Streptococcus pneumoniae [20]): 1 µg/mL (≈ 3.34 µM); Activity (Streptococcus pneumoniae [21]): 15.3%; MIC50 (Streptococcus pneumoniae [22]): 1 µg/mL (≈ 3.34 µM); MIC90 (Streptococcus pneumoniae [22]): 1 µg/mL (≈ 3.34 µM); MIC50 (Streptococcus pneumoniae [23]): 1 µg/mL (≈ 3.34 µM); MIC90 (Streptococcus pneumoniae [23]): 1 µg/mL (≈ 3.34 µM)
C[C@H]1COc2c(N3CCN(C)CC3)c(F)cc3c(=O)c(C(=O)O)cn1c23.C[C@H]1COc2c(N3CCN(C)CC3)c(F)cc3c(=O)c(C(=O)O)cn1c23.O [LEVOFLOXACIN] | 1 | 1 | 1 | 1 | 99.2 | 1 | 1 | 99.2 | 100 | 100 | 100 | 100 | 98.3 | 99.2 | 96.6 | 100 | 1 | 1 | 100 | 97 | MIC50 (Streptococcus pneumoniae [17]): 1 µg/mL; MIC90 (Streptococcus pneumoniae [17]): 2 µg/mL; Activity (Streptococcus pneumoniae [18]): 100%; MIC50 (Streptococcus pneumoniae [19]): 1 µg/mL; MIC90 (Streptococcus pneumoniae [19]): 1 µg/mL; MIC50 (Streptococcus pneumoniae [20]): 1 µg/mL; MIC90 (Streptococcus pneumoniae [20]): 1 µg/mL; Activity (Streptococcus pneumoniae [21]): 98.3%; MIC50 (Streptococcus pneumoniae [22]): 1 µg/mL; MIC90 (Streptococcus pneumoniae [22]): 1 µg/mL; MIC50 (Streptococcus pneumoniae [23]): 1 µg/mL; MIC90 (Streptococcus pneumoniae [23]): 1 µg/mL
CC1(C)S[C@@H]2[C@H](NC(=O)Cc3ccccc3)C(=O)N2[C@H]1C(=O)O [PENICILLIN G] | 0.5 (≈ 1.5 µM) | 1 (≈ 2.99 µM) | 2 (≈ 5.98 µM) | 2 (≈ 5.98 µM) | 11.4 | ≤ 0.03 | ≤ 0.03 | 11.4 | 100 | 100 | 100 | 100 | 98.3 | 11.4 | 37.9 | 46.6 | ≤ 0.03 | ≤ 0.03 | 100 | 100 | MIC (Streptococcus pneumoniae [4]): ≤ 0.03 µg/mL; MIC (Streptococcus pneumoniae [14]): ≤ 0.03 µg/mL; MIC (Streptococcus pneumoniae [17]): ≤ 0.03 µg/mL; MIC50 (Streptococcus pneumoniae [17]): ≤ 0.03 µg/mL; MIC90 (Streptococcus pneumoniae [17]): ≤ 0.03 µg/mL; Activity (Streptococcus pneumoniae [18]): 100%; MIC50 (Streptococcus pneumoniae [19]): 4 µg/mL (≈ 12 µM); MIC90 (Streptococcus pneumoniae [19]): 4 µg/mL (≈ 12 µM); MIC50 (Streptococcus pneumoniae [20]): 4 µg/mL (≈ 12 µM); MIC90 (Streptococcus pneumoniae [20]): 4 µg/mL (≈ 12 µM); Activity (Streptococcus pneumoniae [21]): 98.3%; MIC50 (Streptococcus pneumoniae [22]): 4 µg/mL (≈ 12 µM); MIC90 (Streptococcus pneumoniae [22]): 4 µg/mL (≈ 12 µM); MIC50 (Streptococcus pneumoniae [23]): 4 µg/mL (≈ 12 µM); MIC90 (Streptococcus pneumoniae [23]): 4 µg/mL (≈ 12 µM)
CC1(C)S[C@@H]2[C@H](NC(=O)COc3ccccc3)C(=O)N2[C@H]1C(=O)O [PENICILLIN V] | 0.5 (≈ 1.43 µM) | 1 (≈ 2.85 µM) | 2 (≈ 5.71 µM) | 2 (≈ 5.71 µM) | 0 | ≤ 0.03 | ≤ 0.03 | 0 | 10.5 | 36.4 | 98.8 | 95.9 | 10.2 | 0 | 20.7 | 13.8 | ≤ 0.03 | ≤ 0.03 | 100 | 84.8 | MIC (Streptococcus pneumoniae [4]): ≤ 0.03 µg/mL; MIC (Streptococcus pneumoniae [14]): ≤ 0.03 µg/mL; MIC (Streptococcus pneumoniae [17]): ≤ 0.03 µg/mL; MIC50 (Streptococcus pneumoniae [17]): ≤ 0.03 µg/mL; MIC90 (Streptococcus pneumoniae [17]): ≤ 0.03 µg/mL; Activity (Streptococcus pneumoniae [18]): 37.2%; MIC50 (Streptococcus pneumoniae [19]): 4 µg/mL (≈ 11.4 µM); MIC90 (Streptococcus pneumoniae [19]): 4 µg/mL (≈ 11.4 µM); MIC50 (Streptococcus pneumoniae [20]): 4 µg/mL (≈ 11.4 µM); MIC90 (Streptococcus pneumoniae [20]): 4 µg/mL (≈ 11.4 µM); Activity (Streptococcus pneumoniae [21]): 10.2%; MIC50 (Streptococcus pneumoniae [22]): 4 µg/mL (≈ 11.4 µM); MIC90 (Streptococcus pneumoniae [22]): 4 µg/mL (≈ 11.4 µM); MIC50 (Streptococcus pneumoniae [23]): 4 µg/mL (≈ 11.4 µM); MIC90 (Streptococcus pneumoniae [23]): 4 µg/mL (≈ 11.4 µM)
